The source of these data is patent US10745382B2 (BRISTOL-MYERS SQUIBB COMPANY, priority 2015, dated 2020).

In the first assay the target is T1, PD-1/PD-L1 (Homo sapiens, UniProt Q9NZQ7).
T1 construct: made in house; host or cells: HEK293T
T1 sequence (Q9NZQ7 with tags, fused parts or gaps): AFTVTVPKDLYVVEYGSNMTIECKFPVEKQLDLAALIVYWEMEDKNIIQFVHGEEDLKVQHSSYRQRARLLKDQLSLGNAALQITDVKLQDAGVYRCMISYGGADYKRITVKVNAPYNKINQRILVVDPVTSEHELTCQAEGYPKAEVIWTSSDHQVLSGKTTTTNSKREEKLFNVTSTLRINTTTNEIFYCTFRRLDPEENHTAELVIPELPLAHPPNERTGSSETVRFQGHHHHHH
The assay is described as follows: PD-1/PD-L1 Homogenous Time-Resolved Fluorescence (HTRF) binding assay. Conditions: PD-L1-His 10 nM, PD-1-Ig 20 nM; numeric IC50, cell prints uM; read-out: Range or IC50. An outline of the steps:
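Compounds are tested for blocking the PD-1/PD-L1 interaction in dPBS supplemented with 0.1% BSA and 0.05% (v/v) Tween-20. Tagged proteins are detected with Eu-cryptate anti-Ig and APC anti-His at 1 and 20 nM final.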
On the technique in general: In TR-FRET formats the signal depends on donor and acceptor labels being close together.
Usually IC50 stands for the concentration that gives 50% inhibition. On to `Cc1c(OCCCN2CC[C@@H](O)C2)cccc1-c1cccc(OCc2cc(O)c(CN(C)C)cc2Cl)c1C` [Example 2123, (R)-1-(3-((3′-((2-chloro-4-((dimethylamino)methyl)-5-hydroxybenzyl)oxy)-2,2′-dimethyl-[1,1′-biphenyl]-3-yl)oxy)propyl)pyrrolidin-3-ol], for which the IC50 turned out to be 2 µM.

The assay is the same for the next values; noted with them: PD-L1-His 10 nM, PD-1-Ig 20 nM; value given as range class; read-out: Range or IC50.
On to `Cc1c(COc2cc(OCc3cncc(C#N)c3)c(CNC(C)(CO)CO)cc2Cl)cccc1-c1cccc(OC[C@H]2CCN(CC(O)CO)C2)c1Cl` (stereo partly drawn) [Example 2119, 5-((4-chloro-5-((2′-chloro-3′-(((3S)-1-(2,3-dihydroxypropyl)pyrrolidin-3-yl)methoxy)-2-methyl-[1,1′-biphenyl]-3-yl)methoxy)-2-(((1,3-dihydroxy-2-methylpropan-2-yl)amino)methyl)phenoxy)methyl)nicotinonitrile], for which the 50% inhibitory concentration (IC50) lay within 0.00021 to 0.01 µM.
On the same count and under the same terms, as for `Cc1c(COc2cc(OCc3cncc(C#N)c3)c(CN3CCCC[C@H]3C(=O)O)cc2Cl)cccc1-c1cccc(OC[C@H]2CCN(CC(O)CO)C2)c1Cl` (stereo partly drawn) [Example 2120, (2S)-1-(5-chloro-4-((2′-chloro-3′-(((3S)-1-(2,3-dihydroxypropyl)pyrrolidin-3-yl)methoxy)-2-methyl-[1,1′-biphenyl]-3-yl)methoxy)-2-((5-cyanopyridin-3-yl)methoxy)benzyl)piperidine-2-carboxylic Acid], the figure is 0.00021 to 0.01 µM; as for `Cc1c(COc2cc(OCc3cncc(C#N)c3)c(CNCCN3CCOCC3)cc2Cl)cccc1-c1cccc(OCCCN2CC[C@@H](O)C2)c1C` [Example 2122, (R)-5-((4-chloro-5-((3′-(3-(3-hydroxypyrrolidin-1-yl)propoxy)-2,2′-dimethyl-[1,1′-biphenyl]-3-yl)methoxy)-2-(((2-morpholinoethyl)amino)methyl)phenoxy)methyl)nicotinonitrile], 0.00021 to 0.01 µM.
Regarding `Cc1c(COc2cc(OCc3cncc(C#N)c3)c(CN3CC[C@@H](O)C3)cc2Cl)cccc1-c1cccc(OCCCN2CC[C@@H](O)C2)c1C` [Example 2201, 5-((4-chloro-2-(((R)-3-hydroxypyrrolidin-1-yl)methyl)-5-((3′-(3-((R)-3-hydroxypyrrolidin-1-yl)propoxy)-2,2′-dimethylbiphenyl-3-yl)methoxy)phenoxy)methyl)nicotinonitrile], the IC50 lay in the range of 0.00021 to 0.01 µM.
On the same count and under the same terms, in the case of `Cc1c(COc2cc(OCc3cncc(C#N)c3)c(CN3CCCC[C@H]3C(=O)O)cc2Cl)cccc1-c1cccc(OCCCN2CCCCC2CO)c1C` (stereo partly drawn) [Example 2202, (2S)-1-(5-chloro-2-((5-cyanopyridin-3-yl)methoxy)-4-((3′-(3-(2-(hydroxymethyl)piperidin-1-yl)propoxy)-2,2′-dimethylbiphenyl-3-yl)methoxy)benzyl)piperidine-2-carboxylic Acid] it was 0.00021 to 0.01 µM; in that of `Cc1c(COc2cc(OCc3cncc(C#N)c3)c(CN3CCCC[C@H]3C(=O)O)cc2Cl)cccc1-c1cccc(OCCCN2CC[C@H](CO)[C@H](O)C2)c1C` [Example 2203, (2S)-1-(5-chloro-2-((5-cyanopyridin-3-yl)methoxy)-4-((3′-(3-((3 S,4R)-3-hydroxy-4-(hydroxymethyl)piperidin-1-yl)propoxy)-2,2′-dimethylbiphenyl-3-yl)methoxy)benzyl)piperidine-2-carboxylic Acid], 0.00021 to 0.01 µM; in that of `Cc1c(COc2cc(OCc3cncc(C#N)c3)c(CN3CCCC[C@H]3C(=O)O)cc2Cl)cccc1-c1cccc(OCCCN2CCC[C@H](C(=O)O)C2)c1C` [Example 2204, (2S)-1-(4-((3′-(3-((S)-3-carboxypiperidin-1-yl)propoxy)-2,2′-dimethylbiphenyl-3-yl)methoxy)-5-chloro-2-((5-cyanopyridin-3-yl)methoxy)benzyl)piperidine-2-carboxylic Acid], 0.00021 to 0.01 µM.
On to `Cc1c(COc2cc(OCc3cncc(C#N)c3)c(CN3CCCC[C@H]3C(=O)O)cc2Cl)cccc1-c1cccc(OCCCN2CCC[C@@H](C(=O)O)C2)c1C` [Example 2205, (2S)-1-(4-((3′-(3-((R)-3-carboxypiperidin-1-yl)propoxy)-2,2′-dimethylbiphenyl-3-yl)methoxy)-5-chloro-2-((5-cyanopyridin-3-yl)methoxy)benzyl)piperidine-2-carboxylic Acid], for which the IC50 fell in the range of 0.00021 to 0.01 µM.
As for `Cc1c(COc2cc(OCc3cncc(C#N)c3)c(CN3CCCC[C@H]3C(=O)O)cc2Cl)cccc1-c1cccc(OCCCN2CCCC(CO)C2)c1C` (stereo partly drawn) [Example 2206, (2S)-1-(5-chloro-2-((5-cyanopyridin-3-yl)methoxy)-4-((3′-(3-(3-(hydroxymethyl)piperidin-1-yl)propoxy)-2,2′-dimethylbiphenyl-3-yl)methoxy)benzyl)piperidine-2-carboxylic Acid], the half-inhibitory concentration (IC50) lay in the range of 0.00021 to 0.01 µM.
As to `Cc1c(COc2cc(OCc3cncc(C#N)c3)c(CN3CCCC[C@H]3C(=O)O)cc2Cl)cccc1-c1cccc(OCCCN2CCCC(C(N)=O)C2)c1C` (stereo partly drawn) [Example 2207, (2S)-1-(4-((3′-(3-(3-carbamoylpiperidin-1-yl)propoxy)-2,2′-dimethylbiphenyl-3-yl)methoxy)-5-chloro-2-((5-cyanopyridin-3-yl)methoxy)benzyl)piperidine-2-carboxylic Acid], the 50% inhibitory concentration (IC50) was in the range of 0.00021 to 0.01 µM.
Still for that read-out and setting: as for `CCN(CC)C(=O)C1CCCN(CCCOc2cccc(-c3cccc(COc4cc(OCc5cncc(C#N)c5)c(CN5CCCC[C@H]5C(=O)O)cc4Cl)c3C)c2C)C1` (stereo partly drawn) [Example 2208, (2S)-1-(5-chloro-2-((5-cyanopyridin-3-yl)methoxy)-4-((3′-(3-(3-(diethylcarbamoyl)piperidin-1-yl)propoxy)-2,2′-dimethylbiphenyl-3-yl)methoxy)benzyl)piperidine-2-carboxylic Acid], the figure is 0.00021 to 0.01 µM; as for `Cc1c(COc2cc(OCc3cncc(C#N)c3)c(CN3CCCC[C@H]3C(=O)O)cc2Cl)cccc1-c1cccc(OCCCN[C@@H](Cc2ccncc2)C(=O)O)c1C` [Example 2209, (2S)-1-(4-((3′-(3-((S)-1-carboxy-2-(pyridin-4-yl)ethylamino)propoxy)-2,2′-dimethylbiphenyl-3-yl)methoxy)-5-chloro-2-((5-cyanopyridin-3-yl)methoxy)benzyl)piperidine-2-carboxylic Acid], 0.01 to 0.1 µM; as for `Cc1c(COc2cc(OCc3cncc(C#N)c3)c(CN3CCCC[C@H]3C(=O)O)cc2Cl)cccc1-c1cccc(OCCCNCCc2ccncc2)c1C` [Example 2210, (2S)-1-(5-chloro-2-((5-cyanopyridin-3-yl)methoxy)-4-((2,2′-dimethyl-3′-(3-(2-(pyridin-4-yl)ethylamino)propoxy)biphenyl-3-yl)methoxy)benzyl)piperidine-2-carboxylic Acid], 0.00021 to 0.01 µM.
Still for that read-out and setting: in the case of `Cc1c(COc2cc(OCc3cncc(C#N)c3)c(CN3CCCC[C@H]3C(=O)O)cc2Cl)cccc1-c1cccc(OCCCN2CCN(CCO)CC2)c1C` [Example 2211, (2S)-1-(5-chloro-2-((5-cyanopyridin-3-yl)methoxy)-4-((3′-(3-(4-(2-hydroxyethyl)piperazin-1-yl)propoxy)-2,2′-dimethylbiphenyl-3-yl)methoxy)benzyl)piperidine-2-carboxylic Acid] it was 0.00021 to 0.01 µM; in that of `Cc1c(COc2cc(OCc3cncc(C#N)c3)c(CN3CCCC[C@H]3C(=O)O)cc2Cl)cccc1-c1cccc(OCCCN2CCOCC2)c1C` [Example 2212, (2S)-1-(5-chloro-2-((5-cyanopyridin-3-yl)methoxy)-4-((2,2′-dimethyl-3′-(3-morpholinopropoxy)biphenyl-3-yl)methoxy)benzyl)piperidine-2-carboxylic Acid], 0.00021 to 0.01 µM.
